Active and inactive are the calls of the source. The rule behind the calls is not given here.
Assays:
[1] = molecular target: Na(+)/citrate cotransporter (Homo sapiens) (UniProt Q86YT5); experiment: Competitive inhibition of SLC13A5 (unknown origin) assessed as increase in Km with constant Vmax upto 50 uM
[2] = molecular target: T1, Solute carrier family 13 member 2 (Homo sapiens) (UniProt Q13183); experiment: Inhibition of NaDC1 (unknown origin) citrate transport activity
T1 sequence (whole entry): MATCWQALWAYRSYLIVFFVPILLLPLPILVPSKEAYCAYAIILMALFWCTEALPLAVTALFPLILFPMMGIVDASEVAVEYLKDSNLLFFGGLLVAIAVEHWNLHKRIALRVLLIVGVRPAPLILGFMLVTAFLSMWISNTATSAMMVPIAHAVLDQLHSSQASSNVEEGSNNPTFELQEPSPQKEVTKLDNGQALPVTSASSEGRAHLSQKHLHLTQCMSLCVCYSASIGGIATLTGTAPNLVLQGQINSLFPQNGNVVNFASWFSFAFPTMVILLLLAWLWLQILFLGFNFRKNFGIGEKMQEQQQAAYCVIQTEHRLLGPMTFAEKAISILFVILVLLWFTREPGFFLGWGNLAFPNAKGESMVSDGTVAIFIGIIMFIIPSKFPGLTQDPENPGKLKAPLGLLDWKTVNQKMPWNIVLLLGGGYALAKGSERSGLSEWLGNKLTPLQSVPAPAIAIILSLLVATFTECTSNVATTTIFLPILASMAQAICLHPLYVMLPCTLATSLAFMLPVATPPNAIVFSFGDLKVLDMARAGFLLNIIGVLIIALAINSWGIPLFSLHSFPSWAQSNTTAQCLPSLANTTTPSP

AML12 [3] = experiment: Lipid lowering effect on PCN-induced lipid accumulation in mouse AML12 cells assessed as decrease in ACLY mRNA expression level at 3 to 30 uM preincubated with compound for 30 mins followed by PCN addition and measured after 24 hrs by RT-qPCR analysis; type: functional, cell-based; conditions: dose 3-30 µM, time 24.5 hrs
Mus musculus [4] = experiment: Lipid lowering activity in starvation-induced hyperlipidemic male C57BL/6J mouse model assessed as decrease in size of lipid droplets in liver starved for 48 hrs followed by intraperitoneal administration of compound and measured after 2 hrs by Hematoxylin and eosin staining based analysis; type: functional, organism-based; conditions: dose 10-30 mg/kg, route ip
HepG2 [5] = experiment: Lipid lowering effect on PCN-induced lipid accumulation in human HepG2 cells assessed as decrease in ACC1 mRNA expression level at 3 to 30 uM by RT-qPCR analysis; type: functional, cell-based; conditions: dose 3-30 µM
AML12 [6] = experiment: Lipid lowering effect on PCN-induced lipid accumulation in mouse AML12 cells assessed as decrease in FASN mRNA expression level at 3 to 30 uM preincubated with compound for 30 mins followed by PCN addition and measured after 24 hrs by RT-qPCR analysis; type: functional, cell-based; conditions: dose 3-30 µM, time 24.5 hrs
AML12 [7] = experiment: Lipid lowering effect on PCN-induced lipid accumulation in mouse AML12 cells assessed as decrease in total cholesterol level preincubated with compound for 30 mins followed by PCN addition and measured after 24 hrs; type: functional, cell-based; conditions: dose 3-30 µM, time 24.5 hrs
Mus musculus [8] = experiment: Lipid lowering activity in starvation-induced hyperlipidemic male C57BL/6J mouse model assessed as decrease in LDL to HDL cholesterol ratio at 10 to 30 mg/kg, po starved for 48 hrs followed by compound administration and measured after 2 hrs; type: functional, organism-based; conditions: dose 10-30 mg/kg
AML12 [9] = experiment: Lipid lowering effect on PCN-induced lipid accumulation in mouse AML12 cells assessed as decrease in ACC1 mRNA expression level at 3 to 30 uM preincubated with compound for 30 mins followed by PCN addition and measured after 24 hrs by RT-qPCR analysis; type: functional, cell-based; conditions: dose 3-30 µM, time 24.5 hrs
HepG2 [10] = experiment: Lipid lowering effect on PCN-induced lipid accumulation in human HepG2 cells assessed as decrease in intracellular total cholesterol level; type: functional, cell-based; conditions: dose 3-30 µM
Mus musculus [11] = experiment: Lipid lowering activity in PCN-induced hyperlipidemic male C57BL/6J mouse model assessed as decrease in HMGCR mRNA expression level preadministered intragastrically with compound for 15 to 30 mins followed by PCN administration and measured after 7 days by RT-qPCR analysis; type: functional, organism-based; conditions: dose 10-30 mg/kg, route ig, time 15-10110 min
Hepatocyte [12] = experiment: Lipid lowering effect on PCN-induced lipid accumulation in mouse Primary hepatocyte assessed as decrease in HMGCR mRNA expression level at 3 to 30 uM by RT-qPCR analysis; type: functional, cell-based; conditions: dose 3-30 µM
Mus musculus [13] = experiment: In vivo inhibition of SLC13A5 in starvation-induced hyperlipidemic male C57BL/6J mouse model assessed as increase in plasma citrate level at 30 mg/kg, ip starved for 48 hrs followed by compound administration and measured after 2 hrs; type: functional, organism-based
AML12 [14] = experiment: Effect on lipid accumulation in oleic and palmitic acid induced mouse AML12 cells assessed as decrease in total cholesterol level; type: functional, cell-based; conditions: dose 3-30 µM
Mus musculus [15] = experiment: Lipid lowering activity in PCN-induced hyperlipidemic male C57BL/6J mouse model assessed as decrease in ACC1 mRNA expression level preadministered intragastrically with compound for 15 to 30 mins followed by PCN administration and measured after 7 days by RT-qPCR analysis; type: functional, organism-based; conditions: dose 10-30 mg/kg, route ig, time 15-10110 min
Mus musculus [16] = experiment: Lipid lowering activity in starvation-induced hyperlipidemic male C57BL/6J mouse model assessed as downregulation of ACLY gene expression level starved for 48 hrs followed by oral administration of compound and measured after 2 hrs by RT-qPCR analysis; type: functional, organism-based; conditions: dose 10-30 mg/kg
HepG2 [17] = experiment: Lipid lowering effect on oleic and palmitic acid induced lipid accumulation in human HepG2 cells assessed as decrease in intracellular total cholesterol level; type: functional, cell-based; conditions: dose 3-30 µM
Mus musculus [18] = experiment: Lipid lowering activity in starvation-induced hyperlipidemic male C57BL/6J mouse model assessed as decrease in NEFA level in liver at 10 to 30 mg/kg, ip starved for 48 hrs followed by compound administration and measured after 2 hrs; type: functional, organism-based; conditions: dose 10-30 mg/kg
Mus musculus [19] = experiment: Lipid lowering activity in PCN-induced hyperlipidemic male C57BL/6J mouse model assessed as decrease in plasma total cholesterol level at 10 to 30 mg/kg, IG preadministered with compound for 15 to 30 mins followed by PCN administration and measured after 7 days; type: functional, organism-based; conditions: dose 10-30 mg/kg, time 15-10110 min
Mus musculus [20] = experiment: Lipid lowering activity in PCN-induced hyperlipidemic male C57BL/6J mouse model assessed as decrease in plasma triglyceride level at 10 to 30 mg/kg, IG preadministered with compound for 15 to 30 mins followed by PCN administration and measured after 7 days; type: functional, organism-based; conditions: dose 10-30 mg/kg, time 15-10110 min
Hepatocyte [21] = experiment: Lipid lowering effect on PCN-induced lipid accumulation in mouse Primary hepatocyte assessed as decrease in intracellular total cholesterol level; type: functional, cell-based; conditions: dose 3-30 µM
Mus musculus [22] = experiment: Lipid lowering activity in PCN-induced hyperlipidemic male C57BL/6J mouse model assessed as decrease in liver triglyceride level at 10 to 30 mg/kg, IG preadministered with compound for 15 to 30 mins followed by PCN administration and measured after 7 days; type: functional, organism-based; conditions: dose 10-30 mg/kg, time 15-10110 min
Mus musculus [23] = experiment: Lipid lowering activity in starvation-induced hyperlipidemic male C57BL/6J mouse model assessed as decrease in triglyceride level in plasma at 10 to 30 mg/kg, ip starved for 48 hrs followed by compound administration and measured after 2 hrs; type: functional, organism-based; conditions: dose 10-30 mg/kg
Mus musculus [24] = experiment: Effect on SLC13A5 mRNA expression in PCN-induced hyperlipidemic male C57BL/6J mouse model at 10 to 30 mg/kg, IG preadministered with compound for 15 to 30 mins followed by PCN administration and measured after 7 days by RT-qPCR analysis; type: functional, organism-based; conditions: dose 10-30 mg/kg, time 15-10110 min

Chain of Na(+)/citrate cotransporter (Homo sapiens) (Q86YT5 whole entry, looked up): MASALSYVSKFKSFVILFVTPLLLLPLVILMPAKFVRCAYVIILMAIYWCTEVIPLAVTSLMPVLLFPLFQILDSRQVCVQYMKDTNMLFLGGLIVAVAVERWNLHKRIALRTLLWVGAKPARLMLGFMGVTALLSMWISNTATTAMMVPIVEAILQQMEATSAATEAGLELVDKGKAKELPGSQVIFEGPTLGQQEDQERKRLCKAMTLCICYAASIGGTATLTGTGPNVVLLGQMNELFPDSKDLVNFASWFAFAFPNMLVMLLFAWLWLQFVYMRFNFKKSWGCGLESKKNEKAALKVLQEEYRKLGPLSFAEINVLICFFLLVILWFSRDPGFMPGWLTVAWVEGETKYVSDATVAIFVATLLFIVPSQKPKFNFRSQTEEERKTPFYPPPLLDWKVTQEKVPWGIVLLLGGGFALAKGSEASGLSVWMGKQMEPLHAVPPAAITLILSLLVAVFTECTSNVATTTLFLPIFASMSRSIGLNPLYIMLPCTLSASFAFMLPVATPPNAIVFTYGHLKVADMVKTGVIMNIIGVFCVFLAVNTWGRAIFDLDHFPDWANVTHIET

In the case of `O=C(O)CC(O)(CCc1ccc(-c2ccccc2)cc1)C(=O)O` (centres undefined), the inhibition [1] is reported as “Active”, the inhibition [2] is reported as “inactive” and the Activity (AML12 [3]) is reported as “Active”. For the same molecule, the Activity (Mus musculus [4]) was “Dose-Dependent Effect”, the Activity (HepG2 [5]) was “Active” and the Activity (AML12 [6]) was “Active”. The Activity (AML12 [7]) was “Dose-Dependent Effect”, the Activity (Mus musculus [8]) was “Active” and the Activity (AML12 [9]) was “Active”. The Activity (HepG2 [10]) was “Dose-Dependent Effect”, the Activity (Mus musculus [11]) was “Dose-Dependent Effect” and the Activity (Hepatocyte [12]) was “Active”. For the same molecule, the inhibition (Mus musculus [13]) was “Active”, the Activity (AML12 [14]) was “Dose-Dependent Effect” and the Activity (Mus musculus [15]) was “Dose-Dependent Effect”. For the same molecule, the Activity (Mus musculus [16]) was “Dose-Dependent Effect”, the Activity (HepG2 [17]) was “Dose-Dependent Effect” and the Activity (Mus musculus [18]) was “Active”. For the same molecule, the Activity (Mus musculus [19]) was “Active”, the Activity (Mus musculus [20]) was “Active” and the Activity (Hepatocyte [21]) was “Dose-Dependent Effect”. For the same molecule, the Activity (Mus musculus [22]) was “Active”, the Activity (Mus musculus [23]) was “Active” and the Activity (Mus musculus [24]) was “inactive”.

From ChEMBL document CHEMBL5543131, “Discovery of Highly Potent Solute Carrier 13 Member 5 (SLC13A5) Inhibitors for the Treatment of Hyperlipidemia” (J Med Chem, 2024)
